“Also recorded” adds a separate entry of the source. No end group written: not given here.
Legend:
[1] = tested on: human synovium and skin grafts (OA patient); settings: OA synovium and skin double transplants, 15 min recirculation
Experimental: To assess whether the synovial homing properties were due to the intrinsic characteristics of the synovium or related to the disease status (e.g. RA vs OA), pooled clones recovered from the last round of in vivo selection (3rd and 4th round of the experiments described above) were tested in recirculation studies in vivo using SCID animals double transplanted with skin and human synovium from a patient with OA. As previously, equivalent amounts of strep-clone-1 phage were injected intravenously into control animals.

human synovial grafts [2] = settings: 1×10^11 pfu i.v., double transplanted RA synovium and skin
Experimental: Selection in vivo of synovial specific phage. Synovial homing phage were isolated by 3-4 cycles of enrichment in SCID mice transplanted with human tissues at 4-6 weeks of age. Four weeks post-transplantation the pep-PDL library (1×10^11 pfu in 200 μL saline final volume) was injected into the tail vein of anaesthetized animals. After 15 minutes (in vivo phage circulation time), while under deep/terminal anaesthesia (Sagatal, 5 μg/mouse, Rhone Merieux, France) the mice were perfused via the left ventricle with approximately 50-100 mL of saline to ensure phage clearance from the blood pool. Grafts and various mouse organs were then extracted and divided into two aliquots, weighed and processed as necessary for phage recovery and histological analysis. The aliquot assigned for immunohistology was embedded in Optimal Cutting Temperature compound (OCT, Miles, Calif.), snap frozen in liquid nitrogen cooled isopentane (BDH) and stored at −70° C. until analysis. The aliquot used for phage recovery was washed three times in TBS (150 mM NaCl, 50 nm Tris, pH7.4, Sigma, Poole, UK) then homogenized in 1 ml of TBS containing protease inhibitor cocktail (Sigma). […] After a 37° C. overnight incubation the peptide phage, appearing as blue plaques, were counted and the yield of phage localising to each individual tissue determined. […]

human synovial grafts [3] = assay: Synovial homing of single phage clones in SCID mice transplanted with human synovium; type: in vivo; settings: 1×10^11 pfu i.v., 15 minutes recirculation; for localization of phage clone to synovial grafts in comparison to strep-clone-1 phage control: SCID mice with human synovium grafts
Experimental: (§1) Selection in vivo of synovial specific phage.
Confirmation of synovial homing specificity in single phage clones displaying consensus motifs. 1×10^11 pfu (200 μL saline fmal volume) of three single phage clones (1.23, 2.10 and 3.1) displaying consensus motifs or the strep-clone-1 phage control were and injected intravenously in separate animals transplanted with human synovium as described in ‘Selection in vivo ofsynovial specific phage’. The number of study and control clone phage localising to synovial grafts was determined as described in the same section.

[4] = tested on: human microvascular endothelium in synovial grafts; assay: Assessment of graft localization of biotinylated peptides (ABC-AP immunohistology); type: in vivo; settings: for localisation of biotinylated peptide to synovial grafts (immunoreactivity): 500 μg/mouse with 3.1 phage clone, ABC-AP, Vector Red
Experimental: (§2) Competitive localisation to human synovial grafts of synthetic biotinylated peptide […] against the parent 3.1 phage clone. SCID mice were transplanted with human synovial tissue and injected intravenously, as describe above for the in vivo selection experiments, with 1×10^11 tpfu of 3.1 phage clone in presence or absence of increasing concentrations of the biotinylated CKSTHRDLC synthetic peptide (50, 250 and 500 μg/mouse in 200 μL dose volume) or the biotinylated CGTWSHPQC synthetic peptide control. Controls also included animals injected with 1×10^11 pfu of strep-clone-1 or biotin alone. After 15 minutes circulation time, mice were perfused and the number of phage in the transplants determined as described above. Histological analysis was performed as described below.
Assessment of graft localization of biotinylated peptides. The graft localisation of the biotinylated CKSTHRDLC synthetic peptide was assessed by using the alkaline phosphatase avidin biotin complex (ABC-AP) detection system (Dako, UK) and visualised by Vector Red substrate (Novacastra, UK).

[5] = tested on: human synovial grafts (cognate synovial MVE ligand); assay: Competitive localisation to human synovial grafts of synthetic biotinylated peptide against parent 3.1 phage clone; type: in vivo; settings: for effect on graft localisation of the 3.1 phage clone: 50, 250 and 500 μg/mouse with 3.1 phage clone
Experimental: as §1, §2

murine kidney = assay: Phage recovery from murine kidney in the competitive localisation experiment; type: in vivo, mouse; settings: with or without study or control peptide
Experimental: as §1, §2

Substance	localization of phage clone to synovial grafts in comparison to strep-clone-1 phage control (human synovial grafts [3])	localisation of biotinylated peptide to synovial grafts (immunoreactivity) [4]	effect on graft localisation of the 3.1 phage clone [5]	other results
C-G-T-W-S-H-P-Q-C [strep-clone-1]				number of phage recovered from synovial grafts versus skin grafts [1]: virtually the same; localisation of phage to synovial grafts, skin grafts and mouse kidney (human synovial grafts [2]): comparable low levels of localisation in all three tissues
CDRLNHQFC [2.10]	significantly greater localization			
CGTWSHPQC (cysteine pairing not given here; also: biotinylated, site not given here) [reference compound]		no specific immunoreactivity	no significant effect	
CKSTHDRLC (not fully specified; cysteine pairing not given here; also: biotinylated, site not given here)		strongly localises in vivo to synovial grafts	dramatically inhibits in a dose dependent fashion	site of peptide binding within synovial grafts (double staining with anti-human vWf-FITC) ([4]; 500 μg/mouse): specific immunoreactivity co-localising with human vasculature; also recorded: binds principally to human microvascular endothelium; inhibition of graft localisation of the parent 3.1 phage clone ([5]; at maximal dose (500 μg/mouse i.v.), 15 minutes circulation): over 80%
CKSTHDRLC [3.1]	significantly greater localization			increase of synovial graft localization over the control strep-clone-1 phage (human synovial grafts [3]): approximately 10 fold; level of phage localisation to murine kidney (murine kidney): only minimal ‘background’ localisation; graft localisation relative to strep-clone-1 control ([5]; phage alone, 15 minutes circulation): approximately nine times more
CTHSSATQC [1.23]	significantly greater localization			

From patent US20050100555A1, “Homing peptides” (KING'S COLLEGE LONDON An Institute Incorporated by Royal …, priority 2001, published 2005)
